{"source": "patent US20150297619A1", "about": "“METHODS AND COMPOSITIONS FOR PRESERVING THE MUCOSAL BARRIER” (priority 2014, published 2015)", "key": {"[1]": {"tested_on": "hemorrhagic shock", "experiment": "Hemorrhagic shock model with enteral pretreatment, unflushed intestine (Example 1)", "format": "in vivo, rat", "details": "for lesions in the jejunum (gross morphology): enteral pretreatment, HS 90 min at 30 mmHg, 3 hours observation; for rate of MAP decrease during reperfusion: last 2 hours of reperfusion, mean±SD", "description": "Hemorrhagic Shock Model—Hemorrhagic shock (HS) was used to study the ability of treatments, shown in the ex vivo portion of the study to preserve the barrier and protect the intestine in the absence of luminal content, to prevent intestinal injury after ischemia/reperfusion injury in vivo when luminal content is present. Following general anesthesia, the femoral artery and vein were cannulated. Systolic, diastolic, heart rate, and mean arterial pressure (MAP) were recorded throughout the procedure using LabChart (AD Instruments, Dunedin, New Zealand). Rats were randomly divided into the following groups: […] No-HS animals were cannulated and immediately sacrificed for tissue collection. In the HS groups, anesthetized rats were subjected to laparotomy and the intestine was exposed, and a “Pre-HS” image was captured. […] Extra caution was applied to avoid over-inflation of the intestine. After injection, the intestine was carefully returned to the peritoneal cavity and the wound was covered with moist gauze and plastic wrap to keep the animal warm. To prevent clotting in catheters and shed blood, animals were heparinized (1 U/ml i.v., assuming 6% blood volume per body weight) prior to inducing hemorrhagic shock. […] At the end of ischemia, the shed blood was returned to the animal (0.5 ml/min). […] Gross morphology images of the intestine were captured, “Post-HS” At the end of reperfusion, segments of intestine (jejunum; 10 cm from ligament of Treitz) were snap frozen for homogenization and embedded in O.C.T. (Tissue Tek). MPO Activity—Myeloperoxidase (MPO) activity in the intestine as a measure for neutrophil accumulation was selected as an index of reperfusion injury after hemorrhagic shock. Segments from the jejunum (about at the position of segment 2 in the ex vitro study) were homogenized with their native luminal contents (PBS pH 6.0 in 0.5% HTAB). 40 μl of 2 mg/ml intestine homogenate was added to 180 μl of PBS (pH 6.0) mixed with 0.167 mg/ml o-dianisidine dihydrochloride (Sigma-Aldrich) in duplicate and 0.001% H2O2 (w/v). Absorbance was measured kinetically at 450 nm every 5 minutes for 1 hour at 37° C. As negative controls, 180 μl of PBS (pH 6.0) was added to 20 μl of sample and the absorbance values of these samples were subtracted from the measurements with the substrate. The change in absorbance was linear within this period, and MPO activity is presented as the change in absorbance per minute per milligram of protein."}, "[2]": {"tested_on": "intestinal villi cells", "experiment": "TUNEL labeling of ischemic intestine (apoptosis)", "parameters": "species or system rat", "details": "after 2 hrs ex vivo ischemia", "description": "To assess the level of apoptosis after ischemia, in situ terminal transferase dUTP nick end labeling (TUNEL) labeling was completed using a kit (Trevigen, Gaithersburg, Md.) according to manufacturer's instructions. Sections were counterstained with 0.05% toluidine blue in 1% boric acid to contrast 3,3′-diaminobenzidine (DAB) positive nuclei (brown) from negatively stained nuclei (blue). Prior to mounting, all slides were dehydrated (70, 95, 100% ethanol) and cleaned with xylene. After air-drying overnight, sections were mounted using Hard Set Mounting Media (Vector Laboratories, Burlingame, Calif.). Digital images were captured with a 20× objective (numerical aperture 0.5) and digitally montaged together after background subtraction."}, "[3]": {"tested_on": "mucin 13, occludin, and E-cadherin", "experiment": "Immunoblots of epithelial barrier proteins in post-ischemic intestinal homogenates (segment 7)", "parameters": "species or system rat", "details": "ileum segment 7, two hour ex vivo ischemia", "description": "Immunoblotting—To determine whether selected epithelial barrier proteins were degraded during ischemia, pre- and post-ischemic intestinal tissue homogenates (segment 7) were analyzed for relative levels of mucin 13, occludin, and E-cadherin.\nTissues were homogenized for immunoblot analysis in buffer (CelLytic, Sigma-Aldrich) with protease inhibitor cocktail (HALT, Thermo Scientific, 1:100 dilution) and centrifuged (1×10^4 g, 20 min). Protein concentration in supernatants was determined (BCA, ThermoScientific). To separate proteins by gel electrophoresis, 30 μg of protein/well were loaded in 8 or 12% resolving gels with 4% stacking gels and transferred to nitrocellulose membranes (Bio-Rad, Hercules, Calif.). Membranes were blocked for one hour with either 5% bovine serum albumin (BSA) or 5% nonfat milk in tris-buffered saline with 0.5% Tween-20 (TBS-T). Primary antibodies diluted in 1% BSA or 1% nonfat milk against mucin 13 (1:1000, extracellular domain, sc-66973 Santa Cruz Biotechnology, Santa Cruz, Calif.), E-cadherin (1:1000, intracellular domain, 33-4000, Invitrogen), occludin (1:1000, intracellular domain, 33-1500, Invitrogen), pancreatic trypsin (1:1000, sc-137077 Santa Cruz Biotechnology), or β-actin (1:1000, sc-130301, Santa Cruz Biotechnology) were incubated overnight at 4° C. After incubation, membranes were washed with TBS-T (3×, 10 min) before addition of goat anti-rabbit or rabbit anti-mouse secondary antibodies (Santa Cruz Biotechnology) diluted 1:1000 in TBS-T. Following secondary antibody incubation (60 min), the membranes were washed with TBS-T (3×) and developed."}, "[4]": {"tested_on": "intestinal villi", "experiment": "Morphological analysis of intestinal villi after ex vivo ischemia (Van Gieson/hematoxylin)", "parameters": "species or system rat", "details": "for intestinal villi structure: jejunum and ileum after 2 hrs ex vivo ischemia", "description": "After the two-hour ischemic incubation, intestinal pieces from segments 2 (jejunum) and 7 (ileum) were embedded in O.C.T. (Tissue Tek, Torrance, Calif.) and snap frozen in t-methyl butane in liquid nitrogen. Intestine samples from segments 2 and 7 (for protease analysis) and segment 7 (for immunoblots) were snap frozen and stored for subsequent homogenization. Morphological Analysis and TUNEL Labeling—Intestinal segments frozen in O.C.T. were cut into 5 μm sections. Sections were fixed using ice-cold methanol (8 min at −20° C.) and immediately washed four times in distilled water. Nuclei were stained by incubating sections in freshly mixed Weigert's Iron Hematoxylin A and B (Electron Microscopy Science, Hatfield, Pa.) (10 min) followed by rinsing thoroughly with water. Collagen fibers were labeled by incubating (2 min) in Van Gieson's Solution (Electron Microscopy Science). Prior to mounting, all slides were dehydrated (70, 95, 100% ethanol) and cleaned with xylene. After air-drying overnight, sections were mounted using Hard Set Mounting Media (Vector Laboratories, Burlingame, Calif.). Digital images were captured with a 20× objective (numerical aperture 0.5) and digitally montaged together after background subtraction. The separation of the mucosal epithelial layer was quantified for groups that had intact villi following the two hour ischemic period. Images were blinded and the distance between the mucosal epithelial layer and the lamina propria was measured over five lengths across a minimum of 6 villi."}}, "data": [{"smiles": "O=C[C@H](O)[C@@H](O)[C@H](O)[C@H](O)CO", "note": "[Glucose, glucose]", "values": [{"measurement": "lesions in the jejunum (gross morphology)", "setting": "[1]", "value": "had lesions form in the jejunum"}, {"measurement": "rate of MAP decrease during reperfusion", "setting": "[1]", "value": "−0.21±0.13", "unit": "mmHg/min"}, {"measurement": "apoptosis (TUNEL labeling)", "setting": "[2]", "value": "little apoptosis in the villi"}, {"measurement": "E-cadherin levels (immunoblot)", "setting": "[3]", "value": "decreased irrespective of the presence of glucose"}, {"measurement": "mucin 13 levels (immunoblot)", "setting": "[3]", "value": "preserved"}, {"measurement": "occludin levels (immunoblot)", "setting": "[3]", "value": "preserved"}, {"measurement": "intestinal villi structure", "setting": "[4]", "value": "attenuated"}, {"measurement": "separation between the lamina propria and the mucosal epithelial layer", "setting": "[4]; jejunum, after 2 hrs ex vivo ischemia", "value": "still observed"}]}, {"smiles": "NC[C@H]1CC[C@H](C(=O)O)CC1", "note": "[tranexamic acid]", "values": [{"measurement": "lesions in the jejunum (gross morphology)", "setting": "[1]", "value": "had lesions form in the jejunum"}, {"measurement": "rate of MAP decrease during reperfusion", "setting": "[1]", "value": "−0.27±0.16", "unit": "mmHg/min"}, {"measurement": "mucin 13 levels (immunoblot)", "setting": "[3]", "value": "able to preserve mucin 13 levels"}, {"measurement": "occludin levels (immunoblot)", "setting": "[3]", "value": "prevented a significant decrease in occludin"}, {"measurement": "intestinal villi structure", "setting": "[4]", "value": "did not prevent the villi destruction"}]}]}
